Reference: patent US8580968B2, “Benzothiazole and benzooxazole derivatives and methods of use” (AbbVie Inc., priority 2007, dated 2013)

How the values were obtained:
[1] = tested on: Male Sprague Dawley rats; assay: analgesic effect against neuropathic pain (L5/L6 spinal nerve ligation, von Frey mechanical allodynia); type: in vivo, rat; settings: intraperitoneal injection
Procedure: Animals were prepared for testing, by use of a surgical procedure that induces neuropathic pain in one paw. Male Sprague Dawley rats were purchased from Charles River (Portage, Mich.). Prior to surgery, animals were housed in groups and maintained in a temperature-regulated environment. Following nerve ligation surgery, animals were housed in groups, and had access to food and water ad libitum.
The L5 and L6 spinal nerves of anesthetized rats were tightly ligated in a manner described previously (see Kim and Chung, Pain (1992) vol. 50 pp. 355-363). An incision was made on the dorsal portion of the hip and the muscle was blunt-dissected to reveal the spinal processes. […] The paw affected by the surgical procedure (the left paw) develops an allodynic response, a hypersensitivity to mechanical and other stimuli; neuropathic pain is assessed as an increased sensitivity in the surgically affected (left) allodynic paw compared to the control paw on the right side, and measured by comparing the response of the (left side) allodynic paw to the response of the unaffected right side control paw.
For the assessment of neuropathic pain, mechanical allodynia in the affected paw of animals that had undergone spinal nerve ligation was evaluated using testing with von Frey filaments. […]

[2] = tested on: adult osteoarthritic rats; assay: osteoarthritis model (MIA-induced knee joint osteoarthritis, hind limb grip force); type: in vivo, rat; settings: intraperitoneal injection; for effect on hind limb grip force: p<0.01, 20 days after MIA
Procedure: Unilateral knee joint osteoarthritis was induced in rats by a single intra-articular (i.a.) injection of sodium monoiodoacetate (MIA) (Sigma-Aldrich, St. Louis, Mo.) (3 mg in 50 μl sterile isotonic saline) into the right knee joint cavity under light (1-3%) isoflurane anesthesia.
Pain behavior was assessed by measurement of hind limb grip force (GF) in adult osteoarthritic rats. Following the unilateral injection of MIA (male Sprague Dawley, 325-350 g, tested at 20 days following MIA injection), a behavioral measure of activity-induced pain was carried out. Measurements of the peak hind limb grip force were conducted by recording the maximum compressive force (CFmax), in grams of force, exerted on a hind limb strain gauge setup, in a commercially available grip force measurement system (Columbus Instruments, Columbus, Ohio).
During testing, each rat was gently restrained by grasping it around its rib cage and then allowed to grasp the wire mesh frame attached to the strain gauge. The experimenter then moved the animal in a rostral-to-caudal direction until the grip was broken. Each rat was sequentially tested twice at approximately 2-3 min interval to obtain a raw mean grip force (CFmax). This raw mean grip force data was in turn converted to a maximum hindlimb cumulative compressive force (CFmax), as the grams of force/kg of body weight, for each animal.
For evaluating the compound effects, the hind limb grip force was conducted 20 days following the intra-articular injection of MIA. A group of age-matched naïve (not injected with MIA) animals was added as a comparator to the drug-dosed groups. The vehicle control response for each group of MIA-treated animals was defined as the 0% response (0% effect), whereas the naïve control group was defined as the normal response and as 100% effect. The % effects for each dose group was expressed as % return of response to normalcy, compared to the naïve group. That is, the % effect=(Treatment CFmax−Vehicle CFmax)/Vehicle CFmax]×100). All experiments evaluating drug effects in this model were conducted in a randomized blinded fashion. […]

[3] = tested on: mice; assay: single trial 24-hour inhibitory avoidance model (memory); type: in vivo, mouse; settings: 0.03 mg/kg, intraperitoneal injection, p<0.01 versus vehicle injected control mice
Source text: The ability of compounds to treat diseases with deficits in memory and cognition such as Alzheimer's disease, dementia, age-related cognitive impairment, schizophrenia, and cognitive deficits of schizophrenia can be assessed in animal models. One model assessing the capability of a compound to enhance memory is the single trial 24-hour inhibitory avoidance model, described in Tietje et al. (Tietje, K. R., et al. “Preclinical Characterization of A-582941: A Novel α7 Neuronal Nicotinic Receptor Agonist with Broad Spectrum Cognition-Enhancing Properties” CNS Neuroscience and Therapeutics 2008 v14 pp. 65-82). In this mouse model, at a dose of 0.03 mg/kg, administered by intraperitoneal injection, the compound of Example 20 ((R)-2-(2-(3-(piperidin-1-yl)pyrrolidin-1-yl)benzo[d]thiazol-6-yl)pyridazin-3(2H)-one) achieved full efficacy, (p<0.01 versus vehicle injected control mice).

## O=c1cccnn1-c1ccc2nc(N3CC[C@@H](N4CCCCC4)C3)sc2c1 [Example 20, (R)-2-(2-(3-(piperidin-1-yl)pyrrolidin-1-yl)benzo[d]thiazol-6-yl)pyridazin-3(2H)-one]
[1]; 3 mg/kg, p<0.01
  reduction in mechanical allodynia: 40%
[1]; neuropathic pain model
  adverse effects: No complicating adverse effects were observed
[2]; 1 mg/kg
  effect on hind limb grip force: 49%
[2]; 3 mg/kg
  effect on hind limb grip force: 69%
[2]; osteoarthritis model
  adverse effects: No complicating adverse effects were observed
[3]
  efficacy in inhibitory avoidance (memory enhancement): full efficacy
